Ki data for 7 compounds are collected here from patent publication US10442815B2, “Tricyclic heterocyclic compounds as phosphoinositide 3-kinase inhibitors” (Karus Therapeutics Limited, priority 2015, dated 2019).

Holding throughout (assay): Ki determination, non-radiometric ADP-Glo assay (Proqinase GmbH)
What all share (format): biochemical
On the technique in general: ADP-Glo first removes unused ATP, then detects ADP through luciferase.

Experiment [1] addresses T1, PI3K p110γ (Homo sapiens, UniProt P48736).
T1 construct: assay run at Proqinase GmbH
The source says:
(§1) Biochemical activity against class I PI3K isoforms was confirmed by either Ki determination using the non-radiometric ADP-Glo™ assay (Promega, Madison, Wis., USA) at Proqinase GmbH, or IC50 determination using the HTRF biochemical assay at Reaction Biology Corp.

For experiment [2], the target named is T2, PI3K p110β (Homo sapiens, UniProt P42338).
T2 construct: assay run at Proqinase GmbH
Description: as §1

Experiment [3] deals with T3, PI3K p110α (Homo sapiens, UniProt P42336).
T3 construct: assay run at Proqinase GmbH
Description: as §1

Experiment [4] has as its target T4, PI3K p110δ (Homo sapiens, UniProt O00329).
T4 construct: assay run at Proqinase GmbH
Description: as §1

T2 sequence (P42338 whole entry): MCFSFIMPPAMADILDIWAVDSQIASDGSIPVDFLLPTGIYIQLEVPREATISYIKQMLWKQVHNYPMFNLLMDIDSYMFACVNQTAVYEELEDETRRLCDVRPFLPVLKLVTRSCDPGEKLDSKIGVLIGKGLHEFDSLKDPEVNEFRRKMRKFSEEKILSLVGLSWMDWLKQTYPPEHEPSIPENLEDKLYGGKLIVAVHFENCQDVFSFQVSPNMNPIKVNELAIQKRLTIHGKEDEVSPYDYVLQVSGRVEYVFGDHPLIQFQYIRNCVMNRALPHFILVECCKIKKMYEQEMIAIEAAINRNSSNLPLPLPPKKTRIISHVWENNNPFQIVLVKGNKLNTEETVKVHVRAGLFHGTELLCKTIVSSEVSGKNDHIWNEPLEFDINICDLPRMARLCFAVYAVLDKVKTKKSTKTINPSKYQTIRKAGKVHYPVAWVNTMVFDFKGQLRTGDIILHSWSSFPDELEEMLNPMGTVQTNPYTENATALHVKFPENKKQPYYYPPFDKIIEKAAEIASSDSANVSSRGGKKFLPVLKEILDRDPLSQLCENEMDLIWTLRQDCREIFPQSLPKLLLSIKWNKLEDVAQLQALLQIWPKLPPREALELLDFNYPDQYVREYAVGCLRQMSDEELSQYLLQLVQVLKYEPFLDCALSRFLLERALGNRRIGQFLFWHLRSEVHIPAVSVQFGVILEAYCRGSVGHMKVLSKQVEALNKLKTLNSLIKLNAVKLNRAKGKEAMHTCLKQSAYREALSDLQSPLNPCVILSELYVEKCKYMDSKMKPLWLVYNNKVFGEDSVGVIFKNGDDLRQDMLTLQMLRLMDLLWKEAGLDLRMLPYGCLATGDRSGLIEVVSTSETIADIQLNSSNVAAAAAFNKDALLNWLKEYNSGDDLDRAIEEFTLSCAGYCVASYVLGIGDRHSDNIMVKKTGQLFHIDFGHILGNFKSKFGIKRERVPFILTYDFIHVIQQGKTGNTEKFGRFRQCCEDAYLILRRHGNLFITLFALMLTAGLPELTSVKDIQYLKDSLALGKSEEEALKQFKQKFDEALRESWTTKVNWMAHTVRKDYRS
T2 sequence (P27986 whole entry partner): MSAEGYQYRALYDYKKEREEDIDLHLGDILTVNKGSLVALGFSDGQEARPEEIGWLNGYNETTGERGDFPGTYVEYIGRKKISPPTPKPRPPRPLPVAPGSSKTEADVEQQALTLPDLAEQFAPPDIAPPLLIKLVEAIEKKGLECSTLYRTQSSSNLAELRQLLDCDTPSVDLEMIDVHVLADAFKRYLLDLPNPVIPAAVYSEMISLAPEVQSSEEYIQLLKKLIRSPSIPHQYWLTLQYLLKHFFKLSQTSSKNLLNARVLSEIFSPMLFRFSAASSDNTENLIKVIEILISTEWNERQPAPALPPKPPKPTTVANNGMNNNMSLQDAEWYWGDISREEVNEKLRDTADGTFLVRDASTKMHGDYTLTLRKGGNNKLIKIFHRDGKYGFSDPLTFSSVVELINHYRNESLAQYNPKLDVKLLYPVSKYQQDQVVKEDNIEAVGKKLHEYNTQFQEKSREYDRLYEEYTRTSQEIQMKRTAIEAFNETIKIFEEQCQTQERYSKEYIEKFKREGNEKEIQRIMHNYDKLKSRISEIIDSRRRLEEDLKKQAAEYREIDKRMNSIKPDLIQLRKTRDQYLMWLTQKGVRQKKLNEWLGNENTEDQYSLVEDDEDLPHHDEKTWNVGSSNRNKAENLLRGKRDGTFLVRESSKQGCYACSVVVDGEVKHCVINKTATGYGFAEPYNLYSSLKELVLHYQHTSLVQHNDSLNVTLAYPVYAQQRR
T3 sequence (P42336 whole entry): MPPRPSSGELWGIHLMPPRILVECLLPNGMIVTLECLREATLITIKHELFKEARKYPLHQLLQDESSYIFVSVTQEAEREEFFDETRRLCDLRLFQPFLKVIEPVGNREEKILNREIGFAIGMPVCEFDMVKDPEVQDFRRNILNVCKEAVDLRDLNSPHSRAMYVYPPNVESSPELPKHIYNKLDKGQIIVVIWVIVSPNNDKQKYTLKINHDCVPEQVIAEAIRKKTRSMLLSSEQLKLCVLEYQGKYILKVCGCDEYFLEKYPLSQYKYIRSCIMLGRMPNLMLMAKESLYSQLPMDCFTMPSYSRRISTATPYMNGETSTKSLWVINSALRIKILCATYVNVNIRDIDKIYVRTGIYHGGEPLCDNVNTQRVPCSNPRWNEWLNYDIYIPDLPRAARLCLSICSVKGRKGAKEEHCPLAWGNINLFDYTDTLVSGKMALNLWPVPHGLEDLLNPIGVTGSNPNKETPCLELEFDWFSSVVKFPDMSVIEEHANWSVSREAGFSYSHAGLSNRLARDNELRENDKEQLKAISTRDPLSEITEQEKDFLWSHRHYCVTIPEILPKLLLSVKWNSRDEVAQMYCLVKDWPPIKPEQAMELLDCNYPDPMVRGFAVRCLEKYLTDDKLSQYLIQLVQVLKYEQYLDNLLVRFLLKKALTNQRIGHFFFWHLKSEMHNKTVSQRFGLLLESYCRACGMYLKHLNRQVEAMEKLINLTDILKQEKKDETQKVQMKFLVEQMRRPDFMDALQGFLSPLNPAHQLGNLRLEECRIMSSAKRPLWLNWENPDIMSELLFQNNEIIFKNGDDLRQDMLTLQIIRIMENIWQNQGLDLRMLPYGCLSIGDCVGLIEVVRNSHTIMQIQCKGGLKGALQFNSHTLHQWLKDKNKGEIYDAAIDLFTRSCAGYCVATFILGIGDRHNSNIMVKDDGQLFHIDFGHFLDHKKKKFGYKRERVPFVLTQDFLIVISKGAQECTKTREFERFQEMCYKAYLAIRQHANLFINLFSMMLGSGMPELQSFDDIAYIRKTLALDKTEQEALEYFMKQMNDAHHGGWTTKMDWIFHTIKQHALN
T3 sequence (P27986 whole entry partner): as the sequence (P27986 whole entry partner) above
T4 sequence (O00329 whole entry): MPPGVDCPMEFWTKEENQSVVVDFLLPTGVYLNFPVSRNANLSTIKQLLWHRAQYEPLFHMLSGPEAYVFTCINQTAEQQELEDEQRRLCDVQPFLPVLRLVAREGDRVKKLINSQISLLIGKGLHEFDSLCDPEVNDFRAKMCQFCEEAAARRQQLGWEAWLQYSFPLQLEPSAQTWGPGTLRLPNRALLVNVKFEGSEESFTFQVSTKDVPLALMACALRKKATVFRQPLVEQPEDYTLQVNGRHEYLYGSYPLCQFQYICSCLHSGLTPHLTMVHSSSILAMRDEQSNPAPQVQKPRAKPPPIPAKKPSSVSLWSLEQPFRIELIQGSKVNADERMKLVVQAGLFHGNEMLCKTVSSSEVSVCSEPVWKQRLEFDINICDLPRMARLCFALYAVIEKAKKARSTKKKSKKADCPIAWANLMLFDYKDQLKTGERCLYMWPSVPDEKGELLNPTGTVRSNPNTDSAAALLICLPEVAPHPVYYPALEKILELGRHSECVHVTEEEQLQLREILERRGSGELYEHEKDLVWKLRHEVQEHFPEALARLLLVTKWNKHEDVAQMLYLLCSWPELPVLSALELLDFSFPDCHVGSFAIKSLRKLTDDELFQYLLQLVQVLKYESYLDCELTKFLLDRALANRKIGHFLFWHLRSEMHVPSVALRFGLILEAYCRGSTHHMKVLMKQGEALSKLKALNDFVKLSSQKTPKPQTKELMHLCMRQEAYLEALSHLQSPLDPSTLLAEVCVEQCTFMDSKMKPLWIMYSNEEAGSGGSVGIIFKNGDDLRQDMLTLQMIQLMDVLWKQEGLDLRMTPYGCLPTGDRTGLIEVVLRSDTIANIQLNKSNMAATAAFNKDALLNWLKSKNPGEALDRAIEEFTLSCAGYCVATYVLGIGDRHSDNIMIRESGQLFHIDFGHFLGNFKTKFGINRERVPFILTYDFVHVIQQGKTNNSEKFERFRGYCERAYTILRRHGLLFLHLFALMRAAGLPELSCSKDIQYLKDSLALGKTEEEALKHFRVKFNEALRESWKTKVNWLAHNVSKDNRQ
T4 sequence (P27986 whole entry partner): as the sequence (P27986 whole entry partner) above
T1 sequence (P48736 whole entry): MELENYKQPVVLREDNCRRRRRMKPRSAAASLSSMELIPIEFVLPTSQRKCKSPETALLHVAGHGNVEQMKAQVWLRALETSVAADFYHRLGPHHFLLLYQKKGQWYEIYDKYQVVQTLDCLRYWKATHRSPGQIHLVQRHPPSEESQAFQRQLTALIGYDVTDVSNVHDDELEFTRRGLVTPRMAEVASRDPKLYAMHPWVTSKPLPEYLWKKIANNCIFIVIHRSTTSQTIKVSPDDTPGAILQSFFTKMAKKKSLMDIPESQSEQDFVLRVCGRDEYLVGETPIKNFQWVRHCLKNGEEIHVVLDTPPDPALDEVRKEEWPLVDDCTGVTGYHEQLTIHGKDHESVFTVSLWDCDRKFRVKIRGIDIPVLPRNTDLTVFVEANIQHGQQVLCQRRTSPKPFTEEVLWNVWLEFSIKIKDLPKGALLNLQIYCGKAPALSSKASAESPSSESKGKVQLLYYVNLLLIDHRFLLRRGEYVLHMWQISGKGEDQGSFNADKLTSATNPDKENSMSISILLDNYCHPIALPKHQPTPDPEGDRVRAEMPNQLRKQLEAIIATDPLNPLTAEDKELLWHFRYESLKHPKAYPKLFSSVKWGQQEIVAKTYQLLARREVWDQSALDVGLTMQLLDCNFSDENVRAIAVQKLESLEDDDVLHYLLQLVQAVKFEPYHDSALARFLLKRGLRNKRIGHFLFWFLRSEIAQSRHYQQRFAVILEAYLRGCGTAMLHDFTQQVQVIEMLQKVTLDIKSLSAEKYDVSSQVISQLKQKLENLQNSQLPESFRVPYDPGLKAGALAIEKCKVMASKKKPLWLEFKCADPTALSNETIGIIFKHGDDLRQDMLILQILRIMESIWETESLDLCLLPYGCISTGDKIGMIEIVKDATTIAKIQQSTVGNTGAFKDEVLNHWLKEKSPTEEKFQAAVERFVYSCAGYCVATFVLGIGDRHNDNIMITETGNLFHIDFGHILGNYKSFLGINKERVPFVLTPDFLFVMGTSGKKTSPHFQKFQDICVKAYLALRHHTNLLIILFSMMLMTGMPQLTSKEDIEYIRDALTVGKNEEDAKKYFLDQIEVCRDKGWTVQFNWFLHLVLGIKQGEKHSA

As to `c1cc(-c2nc(N3CCOCC3)c3oc4ncc(CN5C[C@@H]6C[C@H]5CS6)cc4c3n2)c2cc[nH]c2c1` [Example J, 4-(1H-Indol-4-yl)-6-(morpholin-4-yl)-12-[(1 S,4S)-2-thia-5-azabicyclo[2.2.1]heptan-5-ylmethyl]-8-oxa-3,5,10-triazatricyclo[7.4.0.0^2,7]trideca-1(13),2,4,6,9,11-hexaene], the inhibition constant Ki in experiment [1] was above 10 µM; in experiment [2] it was at most 0.5 µM; in experiment [3] it was 1 to 10 µM; in experiment [4], at most 0.5 µM.
Consider `O=S1(=O)C[C@@H]2C[C@H]1CN2Cc1cnc2oc3c(N4CCOCC4)nc(-c4cccc5[nH]ccc45)nc3c2c1` [Example K, (1S,4S)-5-{[4-(1H-Indol-4-yl)-6-(morpholin-4-yl)-8-oxa-3,5,10-triazatricyclo[7.4.0.0^2,7]trideca-1(13),2,4,6,9,11-hexaen-12-yl]methyl}-2λ^6-thia-5-azabicyclo[2.2.1]heptane-2,2-dione], for which the Ki was above 10 µM in experiment [1], at most 0.5 µM in experiment [2], 1 to 10 µM in experiment [3] and at most 0.5 µM in experiment [4].
Regarding `[O-][S+]1CC2CC1CN2Cc1cnc2oc3c(N4CCOCC4)nc(-c4cccc5[nH]ccc45)nc3c2c1` [Example L, (1S,2R,4S)-5-{([4-(1H-Indol-4-yl)-6-(morpholin-4-yl)-8-oxa-3,5,10-triazatricyclo[7.4.0.0^2,7]trideca-1(13),2,4,6,9,11-hexaen-12-yl]methyl}-2-thia-5-azabicyclo[2.2.1]heptan-2-ium-2-olate], the Ki in experiment [1] was 1 to 10 µM; in experiment [2], at most 0.5 µM; in experiment [3], 0.5 to 1 µM; in experiment [4], at most 0.5 µM.
For the compound `O=C1Cc2c(cccc2-c2nc(N3CCOCC3)c3oc4ncc(CN5CC[S+]([O-])CC5)cc4c3n2)N1` [Example N, 4-[6-(morpholin-4-yl)-12-[(1-oxo-1λ^4-thiomorpholin-4-yl)methyl]-8-oxa-3,5,10-triazatricyclo[7.4.0.0^2,^7]trideca-1(13),2(7),3,5,9,11-hexaen-4-yl]-2,3-dihydro-1H-indol-2-one], the inhibition constant (Ki) in experiment [1], in experiment [2], in experiment [3] and in experiment [4] was above 10 µM each time.
Consider `[O-][S+]1CCN(Cc2cnc3oc4c(N5CCOCC5)nc(-c5cccc6c5CCN6)nc4c3c2)CC1` [Example O, 4-{[4-(2,3-Dihydro-1H-indol-4-yl)-6-(morpholin-4-yl)-8-oxa-3,5,10-triazatricyclo[7.4.0.0^2,7]trideca-1(13),2(7),3,5,9,11-hexaen-12-yl]methyl}-1λ^4-thiomorpholin-1-one], for which the Ki was above 10 µM in experiment [1], at most 0.5 µM in experiment [2], above 10 µM in experiment [3] and at most 0.5 µM in experiment [4].
For the compound `Cc1ccc2[nH]ccc2c1-c1nc(N2CCOCC2)c2oc3ncc(CN4CC[S+]([O-])CC4)cc3c2n1` [Example P, 4-{[4-(5-Methyl-1H-indol-4-yl)-6-(morpholin-4-yl)-8-oxa-3,5,10-triazatricyclo[7.4.0.0^2,7]trideca-1(9),2,4,6,10,12-hexaen-12-yl]methyl}-1λ^4-thiomorpholin-1-one], the Ki in experiment [1] is 1 to 10 µM; in experiment [2], at most 0.5 µM; in experiment [3] it was 1 to 10 µM; in experiment [4], at most 0.5 µM.
Regarding `[O-][S+]1CCN(Cc2cnc3oc4c(N5CCOCC5)nc(-c5ccc(F)c6[nH]ccc56)nc4c3c2)CC1` [Example Q, 4-{[4-(7-Fluoro-1H-indol-4-yl)-6-(morpholin-4-yl)-8-oxa-3,5,10-triazatricyclo[7.4.0.0^2,7]trideca-1(13),2(7),3,5,9,11-hexaen-12-yl]methyl}-1λ^4-thiomorpholin-1-one], the Ki in experiment [1] was above 10 µM; in experiment [2] it was 1 to 10 µM; in experiment [3], above 10 µM; in experiment [4] it was at most 0.5 µM.

As a reminder, the Ki is the equilibrium dissociation constant of an inhibitor or competing ligand from its target. A higher Ki goes with lower affinity.
